From US20230096766A1, “AMINO ACID HAVING FUNCTIONAL GROUP CAPABLE OF INTERMOLECULAR HYDROGEN BONDING, PEPTIDE COMPOUND CONTAINING SAME AND METHOD FOR PRODUCTION THEREOF” (Chugai Seiyaku Kabushiki Kaisha, priority 2018, published 2023)
*1 amine or outer side, *2 acyl side, *3 side chain or, on linkers, in order; H or OH if unused. Where a SMILES comes first, the peptide text is derived from it. Bridges are numbered along the chain shown (N, C = ends). [ ]: non-standard residue; d: D form. The star is where a group is joined. ξ: configuration not given here. Phe(3-OMe,4-CONHMs) = COc1cc(C[C@H](N)C(=O)O)ccc1C(=O)NS(C)(=O)=O; NMeAbu(3,3-F2-piperidino) = CN[C@@H](CCN1CCCC(F)(F)C1)C(=O)O; dhPhe(4-CONHMe,3-OMe) = CNC(=O)c1ccc(CC[C@@H](N)C(=O)O)cc1OC; X14 = CC(C)[C@H](CC(=O)[C@H](Cc1ccccc1)N(C)[*:1])C(=O)[*:2]; Phe(4-COOH) = N[C@@H](Cc1ccc(C(=O)O)cc1)C(=O)O; NMePhe(3-Cl) = CN[C@@H](Cc1cccc(Cl)c1)C(=O)O; X12 = O=C([C@H](CCCC(O)C(F)(F)F)N[*:1])[*:2]; ξGln(SO2Me) = CS(=O)(=O)NC(=O)CCC(N)C(=O)O; NMehPhe = CN[C@@H](CCc1ccccc1)C(=O)O; X9 = O=C([C@@H](CN[*:1])COCCO)[*:2]; NMeF = CN[C@@H](Cc1ccccc1)C(=O)O; NMeGABA = CN(CCCC(=O)[*:2])[*:1]; NMeI = CC[C@H](C)[C@H](NC)C(=O)O; ξThr(3R) = C[C@@H](O)C(N)C(=O)O; Butyl(3-Me,3-OH) = CC(C)(O)CC*; NMeL = CN[C@@H](CC(C)C)C(=O)O; Butyl(3R-OH) = C[C@@H](O)CC*; Propyl(2R-OH) = C[C@@H](O)C*; NMeV = CN[C@H](C(=O)O)C(C)C; NMeAbu = CC[C@H](NC)C(=O)O; NMeA = CN[C@@H](C)C(=O)O; Piperidide = C1CCN(*)CC1; CH2CONHMe = CNC(=O)C*; NBuGly = CCCCNCC(=O)O; ξL = CC(C)CC(N)C(=O)O; Isopentyl = CC(C)CC*; NPrGly = CCCNCC(=O)O; Propyl(3-OH) = OCCC*; ξV = CC(C)C(N)C(=O)O; Ethyl(2-OH) = OCC*; N(OH)Me = CN(O)*; Sar = CNCC(=O)O; tBu = CC(C)(C)*

Experiment: in vitro
Conditions: human, Caco-2, Caco-2

SMILES | Papp [×10⁻⁶ cm/s]
CC(C)C[C@@H]1NC(=O)[C@H](Cc2ccccc2)N(C)C(=O)[C@H](Cc2ccccc2)N(C)C(=O)[C@H](CC(C)C)NC(=O)[C@H](CC(C)C)N(C)C(=O)CCCN(C)C(=O)C[C@@H](C(=O)N2CCCCC2)NC(=O)[C@H](C)N(C)C(=O)[C@H](CCN2CCCC(F)(F)C2)N(C)C(=O)[C@H]([C@@H](C)O)NC(=O)[C@H](CC(C)C)N(C)C1=O [pd390] ([NMeGABA][NMeL]L[NMeF][NMeF]L[NMeL]T[NMeAbu(3,3-F2-piperidino)][NMeA]D-Piperidide; lactam N-11) | 2
CCCCN1CC(=O)N(C)[C@@H](C(C)C)C(=O)N[C@H](C(=O)N2CCCCC2)CC(=O)N(C)[C@@H](CC)C(=O)NC(CCC(=O)NS(C)(=O)=O)C(=O)N(C)[C@@H](CC(C)C)C(=O)N(C)[C@@H](Cc2cccc(Cl)c2)C(=O)N[C@@H](CC(C)C)C(=O)N(C)[C@@H](Cc2ccccc2)C(=O)N(C)[C@@H](CC(C)C)C(=O)N[C@@H]([C@@H](C)O)C1=O (stereo partly drawn) [pd63] ([NMeAbu][ξGln(SO2Me)][NMeL][NMePhe(3-Cl)]L[NMeF][NMeL]T[NBuGly][NMeV]D-Piperidide; lactam N-11) | < 0.1

Same assay, conditions: human, Caco-2, Caco-2 (cm/sec)

SMILES | Papp [×10⁻⁶ cm/s]
CCCN1CC(=O)N(C)[C@@H](CCc2ccccc2)C(=O)N(C)[C@@H](CC(C)C)C(=O)N[C@@H](COCCC(C)C)C(=O)N(C)[C@@H](CC(C)C)C(=O)N[C@H](C(=O)N2CCCCC2)CC(=O)N(C)CC(=O)N(C)[C@@H](Cc2cccc(Cl)c2)C(=O)N[C@@H](COCCO)C(=O)N(C)[C@@H](CC(C)C)C(=O)N[C@@H]([C@@H](C)O)C1=O [Compound A07] ([Sar][NMePhe(3-Cl)]S(Ethyl(2-OH))[NMeL]T[NPrGly][NMehPhe][NMeL]S(Isopentyl)[NMeL]D-Piperidide; lactam N-11) | 0.53
CC(C)C[C@@H]1NC(=O)[C@H](CC(C)C)N(C)C(=O)[C@H](Cc2cccc(Cl)c2)N(C)C(=O)[C@H](COCCO)CNC(=O)[C@H](CC(C)C)N(C)C(=O)CCCN(C)C(=O)C[C@@H](C(=O)N2CCCCC2)NC(=O)[C@H](CC(C)C)N(C)C(=O)[C@H](CC(C)C)N(C)C(=O)[C@H]([C@@H](C)O)NC(=O)[C@H](CC(C)C)N(C)C1=O [AP129] ([NMeGABA][NMeL][X9][NMePhe(3-Cl)][NMeL]L[NMeL]T[NMeL][NMeL]D-Piperidide; lactam N-11) | 0.46
CC(C)C[C@H]1C(=O)NC(C(C)C)C(=O)N(C)[C@@H](Cc2ccccc2)C(=O)N(C)[C@@H](Cc2cccc(Cl)c2)C(=O)N[C@@H](COCC[C@@H](C)O)C(=O)N(C)[C@@H](CC(C)C)C(=O)N[C@@H]([C@@H](C)O)C(=O)N(C)[C@@H](CC(C)C)C(=O)N(C)[C@@H](CC(C)C)C(=O)N[C@H](C(=O)N2CCCCC2)CC(=O)N(C)CCCC(=O)N1C (stereo partly drawn) [AP111] ([NMeGABA][NMeL][ξV][NMeF][NMePhe(3-Cl)]S(Butyl(3R-OH))[NMeL]T[NMeL][NMeL]D-Piperidide; lactam N-11) | 0.13
CC[C@H](C)[C@@H]1NC(=O)[C@H](CC(C)C)N(C)C(=O)CCCN(C)C(=O)C[C@@H](C(=O)N2CCCCC2)NC(=O)[C@H](CC(C)C)N(C)C(=O)[C@H](CC(C)C)N(C)C(=O)[C@H]([C@@H](C)O)NC(=O)[C@H](CC(C)C)N(C)C(=O)[C@@H](CCc2ccc(C(=O)NC)c(OC)c2)NC(=O)[C@H](CC(C)C)N(C)C(=O)[C@H](Cc2ccccc2)N(C)C1=O [AP210] ([NMeGABA][NMeL]I[NMeF][NMeL][dhPhe(4-CONHMe,3-OMe)][NMeL]T[NMeL][NMeL]D-Piperidide; lactam N-11) | 0.34
COc1cc(C[C@@H]2NC(=O)[C@H](C(C)C)N(C)C(=O)[C@H](CC(C)C)N(C)C(=O)C(CC(C)C)NC(=O)[C@H](CC(C)C)N(C)C(=O)[C@H](CC(C)C)N(C)C(=O)[C@H](C)NC(=O)[C@H](CC(C)C)N(C)C(=O)C[C@@H](C(=O)N3CCCCC3)NC(=O)[C@H](CC(C)C)N(C)C(=O)CN(C)C2=O)ccc1C(=O)NS(C)(=O)=O (stereo partly drawn) [AP142] ([NMeL]A[NMeL][NMeL][ξL][NMeL][NMeV][Phe(3-OMe,4-CONHMs)][Sar][NMeL]D-Piperidide; lactam N-11) | 0.63
CCCCN1CC(=O)N(C)[C@@H](CC(C)C)C(=O)N[C@@H](COC[C@@H](C)O)C(=O)N(C)[C@@H](Cc2cccc(Cl)c2)C(=O)N(C)[C@@H](C(C)C)C(=O)N[C@H](C(=O)N2CCCCC2)CC(=O)N[C@H](C(C)C)C(=O)N(C)[C@@H](Cc2ccccc2)C(=O)N[C@@H](CC(C)C)C(=O)N(C)[C@@H](CC(C)C)C(=O)N[C@@H]([C@@H](C)O)C1=O [AP80] ([dV][NMeF]L[NMeL]T[NBuGly][NMeL]S(Propyl(2R-OH))[NMePhe(3-Cl)][NMeV]D-Piperidide; lactam N-11) | 0.36
CCCCN1CC(=O)N(C)[C@@H](CC(C)C)C(=O)N[C@@H](COC(C)(C)C)C(=O)N(C)[C@@H](Cc2ccccc2)C(=O)N(C)[C@@H](CC(C)C)C(=O)N[C@H](C(=O)N2CCCCC2)CC(=O)N[C@H](C(C)C)C(=O)N(C)[C@@H](C(C)C)C(=O)N[C@@H](Cc2ccc(C(=O)N(C)O)cc2)C(=O)N(C)[C@@H](CC(C)C)C(=O)N[C@@H]([C@@H](C)O)C1=O [AP248] ([dV][NMeV][Phe(4-COOH)](N(OH)Me)[NMeL]T[NBuGly][NMeL]S(tBu)[NMeF][NMeL]D-Piperidide; lactam N-11) | 0.24
CCCCN1CC(=O)N(C)[C@@H](CC(C)C)C(=O)N[C@@H](COC(C)(C)C)C(=O)N(C)[C@@H]([C@@H](C)CC)C(=O)N(C)[C@@H](CC(C)C)C(=O)N[C@H](C(=O)N2CCCCC2)CC(=O)N[C@H](C)C(=O)N(C)[C@@H](Cc2ccccc2)C(=O)N[C@@H](Cc2ccc(C(=O)N(C)O)cc2)C(=O)N(C)[C@@H](CC(C)C)C(=O)N[C@@H]([C@@H](C)O)C1=O [AP250] ([dA][NMeF][Phe(4-COOH)](N(OH)Me)[NMeL]T[NBuGly][NMeL]S(tBu)[NMeI][NMeL]D-Piperidide; lactam N-11) | 0.12
CCCN1CC(=O)N(C)[C@@H](Cc2ccccc2)C(=O)N[C@@H]([C@@H](C)CC)C(=O)N(C)[C@@H](CC(C)C)C(=O)N[C@@H]([C@@H](C)O)C(=O)N(C)CC(=O)N(C)[C@@H](Cc2ccccc2)C(=O)N(C)[C@@H](CC(C)C)C(=O)N[C@@H](COCCC(C)(C)O)C(=O)N(C)[C@@H](CC(C)C)C(=O)N[C@H](C(=O)N2CCCCC2)CC1=O [AP59] ([NPrGly][NMeF]I[NMeL]T[Sar][NMeF][NMeL]S(Butyl(3-Me,3-OH))[NMeL]D-Piperidide; lactam N-11) | 0.78
CCCCN1CC(=O)N(C)[C@@H](CC(C)C)C(=O)N[C@H](C(=O)N2CCCCC2)CC(=O)N(C)[C@@H](C(C)C)C(=O)N[C@@H](COCCCO)C(=O)N(C)[C@@H](CC(C)C)C(=O)N(C)[C@@H](Cc2ccccc2)C(=O)C[C@@H](C(C)C)C(=O)N(C)[C@@H](Cc2ccccc2)C(=O)N(C)[C@@H](CC(C)C)C(=O)N[C@@H]([C@@H](C)O)C1=O [AP93] ([NMeV]S(Propyl(3-OH))[NMeL][X14][NMeF][NMeL]T[NBuGly][NMeL]D-Piperidide; lactam N-10) | 1.1
CC(C)C[C@@H]1NC(=O)[C@H](Cc2ccccc2)N(C)C(=O)[C@@H](C(C)C)NC(=O)C[C@@H](C(=O)N2CCCCC2)NC(=O)[C@H](CC(C)C)N(C)C(=O)[C@H](Cc2cccc(Cl)c2)N(C)C(=O)[C@H](COCC[C@@H](C)O)NC(=O)[C@H](CC(C)C)N(C)C(=O)CN(C)C(=O)[C@H]([C@@H](C)O)NC(=O)[C@H](CC(C)C)N(C)C1=O [AP109] ([dV][NMeF]L[NMeL]T[Sar][NMeL]S(Butyl(3R-OH))[NMePhe(3-Cl)][NMeL]D-Piperidide; lactam N-11) | 0.64

Same assay, conditions: human, Caco-2, Caco-2 (cm/sec) Papp

SMILES | Papp [×10⁻⁶ cm/s]
CC(C)C[C@@H]1NC(=O)[C@H](Cc2ccccc2)N(C)C(=O)C([C@@H](C)O)NC(=O)[C@H](Cc2ccccc2)N(C)C(=O)CN(C)C(=O)[C@H](Cc2ccccc2)NC(=O)[C@H](CC(C)C)N(C)C(=O)[C@H](CC(C)C)NC(=O)[C@H](Cc2ccccc2)N(C)C(=O)[C@H](C)N(C)C(=O)C[C@@H](C(=O)N2CCCCC2)NC1=O (stereo partly drawn) [pd231] ([NMeA][NMeF]L[NMeL]F[Sar][NMeF][ξThr(3R)][NMeF]LD-Piperidide; lactam N-11) | 0.21
CC(C)C[C@H]1C(=O)NCC(=O)N[C@H](C(=O)N(C)[C@@H](Cc2ccccc2)C(=O)N(C)[C@@H](Cc2ccccc2)C(=O)N[C@@H](C)C(=O)N2CCCCC2)CC(=O)N[C@@H](C)C(=O)N[C@@H]([C@@H](C)O)C(=O)N(C)[C@@H](C)C(=O)N(C)[C@@H](Cc2ccccc2)C(=O)N[C@@H](C(C)C)C(=O)N(C)[C@@H](Cc2ccccc2)C(=O)N1C [pd247] (AT[NMeA][NMeF]V[NMeF][NMeL]GD[NMeF][NMeF]A-Piperidide; lactam N-9) | 0.087

Same assay, conditions: human, Caco-2, Caco-2 (membrane permeability)

SMILES | Papp [×10⁻⁶ cm/s]
CCCN1CC(=O)N(C)[C@@H](CC(C)C)C(=O)N[C@H](C(=O)N2CCCCC2)CC(=O)N(C)[C@@H](CC(C)C)C(=O)N[C@@H](CCC(=O)NC)C(=O)N(C)[C@@H](CC(C)C)C(=O)N(C)[C@@H](Cc2ccccc2)C(=O)N[C@@H](CC(C)C)C(=O)N(C)[C@@H](Cc2ccccc2)C(=O)N(C)[C@@H]([C@@H](C)CC)C(=O)N[C@@H]([C@@H](C)O)C1=O [Compound J03] ([NMeL]E(NHMe)[NMeL][NMeF]L[NMeF][NMeI]T[NPrGly][NMeL]D-Piperidide; lactam N-11) | 0.21
CCCCN1CC(=O)N(C)[C@@H](Cc2ccccc2)C(=O)N(C)[C@@H](CC(C)C)C(=O)N[C@@H](CCCC(O)C(F)(F)F)C(=O)N(C)[C@@H](CC(C)C)C(=O)N[C@H](C(=O)N2CCCCC2)CC(=O)N(C)CC(=O)N(C)[C@@H](Cc2ccccc2)C(=O)N[C@@H]([C@@H](C)CC)C(=O)N(C)[C@@H](CC(C)C)C(=O)N[C@@H]([C@@H](C)O)C1=O (stereo partly drawn) [Compound D07] ([Sar][NMeF]I[NMeL]T[NBuGly][NMeF][NMeL][X12][NMeL]D-Piperidide; lactam N-11) | 0.37
CCCCN1CC(=O)N(C)[C@@H](Cc2ccccc2)C(=O)N[C@@H]([C@@H](C)CC)C(=O)N(C)[C@@H](CC(C)C)C(=O)N[C@@H]([C@@H](C)O)C(=O)N(CCC)CC(=O)N(C)[C@@H](Cc2ccccc2)C(=O)N(C)[C@@H](CC(C)C)C(=O)N[C@@H](COCC(=O)NC)C(=O)N(C)[C@@H](CC(C)C)C(=O)N[C@H](C(=O)N2CCCCC2)CC1=O [Compound I06] ([NBuGly][NMeF]I[NMeL]T[NPrGly][NMeF][NMeL]S(CH2CONHMe)[NMeL]D-Piperidide; lactam N-11) | 0.24
